Activity calls are given as the source filed them. The calls are words filed in the database; no cut-off is given here. Where a SMILES comes first, the peptide text is derived from it.
Tests used:
[1] = biological target: T1, Segment polarity protein dishevelled homolog DVL-2 (Homo sapiens) (UniProt O14641); experiment: (§1) Binding affinity at Dvl2 PDZ domain after 15 mins by fluorescence polarization assay
T1 sequence (whole entry): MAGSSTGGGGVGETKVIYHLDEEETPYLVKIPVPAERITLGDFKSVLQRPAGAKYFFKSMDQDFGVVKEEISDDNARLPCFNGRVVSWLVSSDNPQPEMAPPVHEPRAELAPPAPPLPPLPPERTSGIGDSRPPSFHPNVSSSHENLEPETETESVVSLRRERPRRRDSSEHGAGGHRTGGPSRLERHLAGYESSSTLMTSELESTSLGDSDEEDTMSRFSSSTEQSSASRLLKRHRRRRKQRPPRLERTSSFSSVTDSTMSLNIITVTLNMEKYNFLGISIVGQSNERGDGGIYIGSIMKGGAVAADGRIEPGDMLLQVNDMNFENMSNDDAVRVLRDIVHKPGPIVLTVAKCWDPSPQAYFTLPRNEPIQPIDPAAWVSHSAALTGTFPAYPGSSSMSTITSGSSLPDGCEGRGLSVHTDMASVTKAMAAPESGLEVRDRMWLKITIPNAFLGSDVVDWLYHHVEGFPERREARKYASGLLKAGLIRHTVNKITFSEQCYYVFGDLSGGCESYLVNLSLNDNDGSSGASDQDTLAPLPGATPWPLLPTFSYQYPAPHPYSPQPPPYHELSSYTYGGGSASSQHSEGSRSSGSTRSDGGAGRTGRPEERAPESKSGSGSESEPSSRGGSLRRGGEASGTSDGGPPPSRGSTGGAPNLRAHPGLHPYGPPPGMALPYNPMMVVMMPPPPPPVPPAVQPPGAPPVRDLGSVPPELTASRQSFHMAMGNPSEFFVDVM

[2] = biological target: T2, Segment polarity protein dishevelled homolog DVL-3 (Homo sapiens) (UniProt Q92997); experiment: Inhibition of Dvl3 overexpressed in human HEK293S assessed as inhibition of […]/TCF reporter signaling at 20 uM after 18 hrs by TOPglow reporter assay
T2 sequence (whole entry): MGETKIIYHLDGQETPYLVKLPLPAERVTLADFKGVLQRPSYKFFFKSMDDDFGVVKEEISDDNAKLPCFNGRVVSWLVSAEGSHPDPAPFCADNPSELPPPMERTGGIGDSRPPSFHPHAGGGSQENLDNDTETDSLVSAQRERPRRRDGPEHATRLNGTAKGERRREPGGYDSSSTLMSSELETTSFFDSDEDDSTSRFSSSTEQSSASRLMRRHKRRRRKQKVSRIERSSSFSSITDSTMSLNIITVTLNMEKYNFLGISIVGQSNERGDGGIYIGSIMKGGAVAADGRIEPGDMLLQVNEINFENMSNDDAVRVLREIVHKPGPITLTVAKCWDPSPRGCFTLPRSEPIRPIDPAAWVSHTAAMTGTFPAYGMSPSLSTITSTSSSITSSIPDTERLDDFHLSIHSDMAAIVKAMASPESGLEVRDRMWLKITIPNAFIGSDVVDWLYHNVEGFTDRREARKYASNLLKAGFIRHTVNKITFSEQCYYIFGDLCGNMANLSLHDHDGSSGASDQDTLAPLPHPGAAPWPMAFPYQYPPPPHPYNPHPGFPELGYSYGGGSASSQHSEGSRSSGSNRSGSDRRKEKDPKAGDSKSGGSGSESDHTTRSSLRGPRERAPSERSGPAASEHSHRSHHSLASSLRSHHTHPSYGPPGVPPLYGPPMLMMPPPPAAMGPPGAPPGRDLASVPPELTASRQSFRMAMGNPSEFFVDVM

[3] = biological target: T2, Segment polarity protein dishevelled homolog DVL-3 (Homo sapiens); experiment: Binding affinity at Dvl3 in human HEK293S lysate after 15 mins by pulldown and Western blot assays
[4] = Drug uptake in human HEK293S cells after 1 hr by time-lapse microscopy; format: ADME, cell-based
HEK293 = experiment: Inhibition of Dvl mediated Wnt3a signaling in human HEK293 cells assessed as […] accumulation at 10 uM after 18 hrs by Western blot method; format: cell-based
[5] = Cytotoxicity in human HEK293S cells assessed as cell viability at 33 uM after 18 hrs by differential interference contrast microscopy; format: cell-based
[6] = biological target: T1, Segment polarity protein dishevelled homolog DVL-2 (Homo sapiens); experiment: Inhibition of Dvl2 overexpressed in human HEK293S assessed as inhibition of […]/TCF reporter signaling at 20 uM after 18 hrs by TOPglow reporter assay
[7] = biological target: T3, Segment polarity protein dishevelled homolog DVL-1 (Homo sapiens) (UniProt O14640); experiment: Inhibition of Dvl1 overexpressed in human HEK293S assessed as inhibition of […]/TCF reporter signaling at 20 uM after 18 hrs by TOPglow reporter assay
T3 sequence (whole entry): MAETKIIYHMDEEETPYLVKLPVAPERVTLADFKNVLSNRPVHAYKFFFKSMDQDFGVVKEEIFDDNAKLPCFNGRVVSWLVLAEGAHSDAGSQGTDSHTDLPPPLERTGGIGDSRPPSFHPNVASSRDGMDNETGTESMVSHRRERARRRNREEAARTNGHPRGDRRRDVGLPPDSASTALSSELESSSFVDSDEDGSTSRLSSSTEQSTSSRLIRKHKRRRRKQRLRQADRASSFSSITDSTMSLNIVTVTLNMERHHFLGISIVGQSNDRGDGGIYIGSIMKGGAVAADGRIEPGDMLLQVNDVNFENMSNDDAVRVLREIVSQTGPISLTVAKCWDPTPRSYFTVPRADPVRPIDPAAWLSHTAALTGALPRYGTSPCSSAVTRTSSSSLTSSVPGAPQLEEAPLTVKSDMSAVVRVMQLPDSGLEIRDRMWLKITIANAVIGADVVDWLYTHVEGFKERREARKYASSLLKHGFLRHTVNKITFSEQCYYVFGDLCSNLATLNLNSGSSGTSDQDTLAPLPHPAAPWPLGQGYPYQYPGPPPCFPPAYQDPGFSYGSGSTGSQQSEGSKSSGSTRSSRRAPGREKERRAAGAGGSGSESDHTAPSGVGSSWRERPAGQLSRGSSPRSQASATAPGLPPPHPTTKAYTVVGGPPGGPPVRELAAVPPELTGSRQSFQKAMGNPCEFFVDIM

[8] = Inhibition of Dvl mediated Wnt3a/TCF signaling in human HEK293S cells after 18 hrs by TOPglow reporter assay
[9] = biological target: T4, Catenin beta-1 (Homo sapiens) (UniProt P35222); experiment: Inhibition of […] mediated […]/TCF reporter signaling in human HEK293S at 20 uM after 18 hrs by TOPglow reporter assay; format: functional
T4 sequence (whole entry): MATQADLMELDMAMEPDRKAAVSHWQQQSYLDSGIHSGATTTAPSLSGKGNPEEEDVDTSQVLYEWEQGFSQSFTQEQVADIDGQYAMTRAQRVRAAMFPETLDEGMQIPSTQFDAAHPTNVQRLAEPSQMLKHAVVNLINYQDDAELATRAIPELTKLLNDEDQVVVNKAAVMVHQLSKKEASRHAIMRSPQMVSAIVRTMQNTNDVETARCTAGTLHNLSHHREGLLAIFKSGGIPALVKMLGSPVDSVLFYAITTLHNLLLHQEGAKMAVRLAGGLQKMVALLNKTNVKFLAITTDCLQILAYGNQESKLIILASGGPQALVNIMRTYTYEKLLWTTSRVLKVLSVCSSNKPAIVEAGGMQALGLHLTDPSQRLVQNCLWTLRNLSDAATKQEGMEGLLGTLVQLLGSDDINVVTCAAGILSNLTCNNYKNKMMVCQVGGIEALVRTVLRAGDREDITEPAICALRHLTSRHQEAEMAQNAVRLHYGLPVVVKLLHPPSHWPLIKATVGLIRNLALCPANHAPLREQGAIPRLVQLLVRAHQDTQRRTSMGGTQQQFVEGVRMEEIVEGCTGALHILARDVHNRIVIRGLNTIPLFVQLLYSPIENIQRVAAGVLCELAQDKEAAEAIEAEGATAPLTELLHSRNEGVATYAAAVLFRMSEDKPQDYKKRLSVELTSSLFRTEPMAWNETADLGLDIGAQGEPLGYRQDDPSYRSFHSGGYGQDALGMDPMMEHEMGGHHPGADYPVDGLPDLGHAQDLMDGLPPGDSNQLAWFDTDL

HCT-15 = experiment: Inhibition of Dvl mediated Wnt/TCF signaling in human HCT15 after 18 hrs by TOPglow reporter assay; format: cell-based
[10] = biological target: T5, Segment polarity protein dishevelled homolog DVL-2 (Homo sapiens, UniProt O14641); experiment: as §1
T5 sequence (O14641 whole entry): T1 sequence (whole entry)

[11] = Cytotoxicity in human HEK293S cells assessed as cell viability at 100 uM after 18 hrs by differential interference contrast microscopy; format: cell-based
[12] = Cytotoxicity in human HEK293S cells assessed as cell viability at 300 uM after 18 hrs by differential interference contrast microscopy; format: cell-based

For CC[C@H](C)[C@H](NC(=O)[C@H](Cc1c[nH]c2ccccc12)NC(=O)[C@@H](NC(=O)[C@H](CCC(=O)O)NC(=O)[C@H](CC(N)=O)NC(=O)CNC(=O)[C@@H](N)CO)C(C)C)C(=O)N[C@@H](CC(=O)O)C(=O)NCC(=O)N1CCC[C@H]1C(=O)O (H-SGNEVWIDGP-OH), the Activity [1] was “Active”.

With CC[C@H](C)[C@H](NC(=O)[C@H](CCCCN)NC(=O)[C@@H](NC(=O)[C@H](CCC(N)=O)NC(=O)[C@H](CCCNC(=N)N)NC(C)=O)[C@@H](C)CC)C(=O)N[C@@H](Cc1c[nH]c2ccccc12)C(=O)N[C@@H](Cc1ccccc1)C(=O)N[C@@H](CCC(N)=O)C(=O)N[C@@H](CC(N)=O)C(=O)N[C@@H](CCCNC(=N)N)C(=O)N[C@@H](CCCNC(=N)N)C(=O)N[C@@H](CCSC)C(=O)N[C@@H](CCCCN)C(=O)N[C@@H](Cc1c[nH]c2ccccc12)C(=O)N[C@@H](CCCCN)C(=O)N[C@@H](CCCCN)C(=O)NCC(=O)NCC(=O)NCC(=O)N[C@@H](CCC(=O)O)C(=O)N[C@H](C(=O)N[C@H](C(=O)N[C@@H](CC(C)C)C(=O)N[C@@H](Cc1c[nH]c2ccccc12)C(=O)N[C@@H](CO)C(=O)N[C@@H](CC(=O)O)C(=O)N[C@H](C(=O)N1CCC[C@H]1C(N)=O)[C@@H](C)CC)C(C)C)[C@@H](C)CC the inhibition [2] was “Active”, the Activity [3] was “Active” and the Drug uptake [4] was “Active”. For the same compound, the inhibition (HEK293) was “Active”, the Activity [5] was “Non-toxic” and the inhibition [6] was “Active”. The inhibition [7] was “Active”, the IC50 [8] was 11 µM and the inhibition [9] was “inactive”. The inhibition (HCT-15) was “inactive”.

Work on NCCCC[C@H](NC(=O)[C@@H](N)Cc1c[nH]c2ccccc12)C(=O)N[C@@H](Cc1c[nH]c2ccccc12)C(=O)N[C@@H](Cc1ccc(O)cc1)C(=O)NCC(=O)N[C@@H](Cc1c[nH]c2ccccc12)C(=O)N[C@@H](Cc1ccccc1)C(=O)O (H-WKWYGWF-OH) yielded a Ki [10] of 0.7 µM.

In the case of CC[C@H](C)[C@H](NC(=O)[C@H](CC(=O)O)NC(=O)[C@H](CO)NC(=O)[C@H](Cc1c[nH]c2ccccc12)NC(=O)[C@H](CC(C)C)NC(=O)[C@@H](NC(=O)[C@@H](NC(=O)[C@H](CCC(=O)O)NC(=O)CN)[C@@H](C)CC)C(C)C)C(=O)O (H-GEIVLWSDI-OH), the Ki [10] is reported as 4.6 µM.

In the case of CC[C@H](C)[C@H](NC(=O)[C@H](Cc1c[nH]c2ccccc12)NC(=O)CNC(=O)[C@H](Cc1ccc(O)cc1)NC(=O)[C@H](CC(=O)O)NC(=O)[C@H](CCCCN)NC(=O)[C@@H](N)Cc1c[nH]c2ccccc12)C(=O)N[C@@H](CC(=O)O)C(=O)O (H-WKDYGWID-OH), the Ki [10] is reported as 1.2 µM.

With CCCCC(O)c1[nH]c2cc(C)c(C(=O)O)cc2c1CCc1ccccc1 (configuration not stated) the Activity [11] was “Toxic”, the IC50 [8] was greater than 100 µM and the Activity [12] was “Toxic”.

Reference: ChEMBL document CHEMBL1221224, “Inhibition of Wnt signaling by Dishevelled PDZ peptides” (Nat Chem Biol, 2009)
